Laboratory results from patent US5894021A, “Iontophoretic transdermal drug-delivery interface and skin treatment agent and treatment method using the same” (Kabushiki Kaisya Advance, priority 1994, dated 1999).

How the values were obtained:
[1] = Prevention test of skin adsorption of drug: nonabsorbed calcitonin in solution on excised rat skin (Example 2), HPLC; assay type: in vitro ADME, male hairless rats; settings: after one hour, 2 μg/ml calcitonin, 60 min
Protocol: The stomach skin of male hairless rats of 13 weeks age were sheared by electric shears, then lightly rubbed and disinfected by absorbent cotton containing an aqueous solution of 70% ethanol. The skin was separated by scissors, then placed on a paper towel moistened with physiological saline with the epidermal side facing up. An acrylic chamber cup (18 mm diameter and 20 mm height) was immersed for 5 minutes in a silicone coating and an aqueous solution of 1% benzalkonium chloride, then was fully rinsed and washed by distilled water. The acrylic chamber cup was adhered to the skin by medicinal adhesive and dried, then filled with 2 ml of an aqueous solution of 1% benzalkonium chloride (Group 2)or distilled water as a control (Group 1) and allowed to stand for 5 minutes. The solution was removed then the cup was fully rinsed and washed by distilled water. As one example of the polypeptide drug, a solution of 2 μg/ml of calcitonin (synthetic salmon calcitonin made by Sigma Co.) in distilled water was prepared. A 2 ml amount each were added to two acrylic chamber cups treated as explained above which were then allowed to stand. Amounts of 100 μl each were sampled after 1, 2, and 6 hours and the amount of nonabsorbed calcitonin in the solution was measured by high pressure liquid chromatography.

[2] = test system: calcium value in the rat serum; experiment: Transdermal iontophoretic administration of calcitonin in rats with benzalkonium chloride-treated or nontreated nylon porous film (Example 1), serum calcium; assay type: in vivo, SD male rats; settings: 2 IU (0.4 μg) per sheet, 6 V, 30 kHz, 30% duty, 45 minutes
Description: These drug holding members, that is, the ion exchange membrane (4), nonwoven fabric (5), and nylon porous member (6) (in this case the holding including at least contact with a drug contact member also acceptable) are coated or impregnated uniformly by an aqueous solution of 0.01% benzalkonium chloride or else immersed in an aqueous solution of the same for treatment, then stripped of water and dried. Of the thus obtained AC-220 membrane, nonwoven fabric, and nylon porous member, the skin contact surface of the nylon porous member has deposited on it a bioactive peptide by a means such as spray coating or impregnation followed by drying for retention. The portion of the nylon porous member (6) coming into contact with the live skin has the drug (11) affixed to it. At the edges of the nylon porous member (6) and under the support (10) are for example disposed an adhesive tape (8) composed of Blenderm® (made by 3M Health Care Ltd.).
Method: Under pentobarbital anesthesia, 7 week old SD male rats had their stomach skin sheared by electric shears and shaved by a shaver, then absorbent cotton containing an aqueous solution of 70% by weight ethanol was used to lightly rub and disinfect the area. […] The serum calcium was measured by the o-cresol phthalein complex method (Calcium C Test Wako made by Wako Pure Chemical Industries, Ltd.).

[3] = test system: calcium value in the rat serum; experiment: Transdermal iontophoretic administration of calcitonin in rats after skin cleaning (Example 3), serum calcium; assay type: in vivo, male SD rats; settings: 0.04 μg per sheet, 6 V, 30 kHz, 30% duty, 45 minutes
Protocol: Under pentobarbital anesthesia, 7 week old male SD rats had their stomach skin sheared by electric shears and shaved by a shaver, then absorbent cotton containing an aqueous solution of 70% by weight ethanol (Group 3) or absorbent cotton containing an aqueous solution of 70% by weight ethanol plus 0.01% benzalkonium chloride (Group 4) was used to lightly rub and disinfect the areas. Calcitonin dried and held in an amount of 0.04 μg per sheet of drug film (synthetic salmon calcitonin made by Sigma Co.) was dissolved in an aqueous solution at the time of use and used for one rat. The conditions of conductance of power in the iontophoresis were a depolarization type constant voltage high duty pulse of 6 V, 30 kHz, and 30% duty applied for 45 minutes. The blood was sampled after a predetermined time from the jugular vein and was centrifugally separated at 12,000 rpm for 5 minutes. The supernatant was used as the serum sample. The calcium in the blood was measured by the o-cresol phthalein complex method (Calcium C Test Wako made by Wako Pure Chemical Industries, Ltd.).

## calcitonin
[1]; skin washed with 1% benzalkonium chloride (Group 2)
  amount of calcitonin in the aqueous solution in terms of the initially prepared concentration: approximately 60%
[1]; skin washed with just distilled water (Group 1)
  amount of calcitonin in the aqueous solution in terms of the initially prepared concentration: approximately 30%
[2]; nylon porous film not coated with surfactant (nontreated group)
  maximum reduction in the calcium value in the rat serum: approximately 17%
[2]; nylon porous film treated by benzalkonium chloride (treated group)
  maximum reduction in the calcium value in the rat serum: 28%
[3]; skin cleaned by 70% by weight ethanol containing 0.01% benzalkonium chloride (Group 4)
  maximum reduction in the calcium value in rat serum: about 30%
[3]; skin cleaned by 70% ethanol alone (Group 3)
  maximum reduction in the calcium value in the rat serum: approximately 13%
